Measured values: patent US20110020471A1, “ERYTHROCYTE ATP-RELEASE MODULATORS” (Wayne State University, priority 2007, published 2011)

Columns and labels:
[1] = test system: rabbit red blood cells (RBCs); test: Deformation-induced ATP release from rabbit RBCs pumped through microbore tubing (luciferin/luciferase chemiluminescence); format: cell-based
Protocol: (§1) Preparation of RBCs. Rabbits (New Zealand whites, males, 2.0-2.5 kg) were anesthetized with ketamine ([…], i.m.) and xylazine (1 mg/kg, i.m.) followed by pentobarbital sodium (15 mg/kg i.v.). A cannula was placed in the trachea and the animals were ventilated with room air. A catheter was placed into a carotid artery for administration of heparin and for phlebotomy. After heparin (500 units, i.v.), the animals were exsanguinated. Human blood was obtained by venipuncture without the use of a tourniquet (antecubital fossa) and collected into a heparinized syringe. Blood was centrifuged at 500×g at 4 C for 10 min. The plasma and buffy coat were discarded. The RBCs were resuspended and washed three times in a physiological salt solution [PSS, containing in mM: 4.7 KCl, 2.0 CaCl2, 140.5 NaCl […], 21.0 tris(hydroxymethyl)aminomethane, 11.1 dextrose with 5% bovine serum albumin (final pH 7.4)]. Cells were prepared on the day of use and experiments were finished within 8 hours of removal from the animal or human subjects. All procedures were approved by the Animal Investigation Committee or the Human Investigation Committee at Wayne State University.
(§2) Measurement of ATP. Human C-peptide (American Peptide Co., Sunnyvale, Calif.), 0.25 mg (MW=3020 g/mol), was dissolved in […] of purified water (18.2 megaohm) to yield a concentration of 83 μM. […] The resulting chemluminescence reaction flowed through a final potion of fused-silica microbore tubing that was placed over a photomultiplier tube, where the emission was detected. The resultant current was measured as a potential by a data acquisition board operated by a program written with the LabView software package (National Instruments, Austin, Tex.).
Introduction. […] Upon deformation in the tubing, the RBCs release ATP that is measured using a well-established chemiluminescence assay for ATP. The concentrations of RBC-derived ATP are measured in the presence and absence of synthetic C-peptide.
C-Peptide-Induced Release of ATP. RBCs obtained from rabbits are pumped through microbore tubing having an inside diameter of […] and the resultant ATP released by the cells upon deformation in the tubing is measured. […] Another aliquot from the same RBC sample is incubated in 1 nM C-peptide and the resultant ATP release measured every 2 h for a period up to 6 h. […] As shown, the ATP release (determined by a chemiluminescence assay) from those cells incubated in the c-peptide increased approximately 2.9 times over a period of […]. […] If cell lysis were occurring, the glybenclamide would have no affect on the measured ATP as it would be present in extracellular form whether or not glybenclamide was introduced to the RBCs. […]

[2] = test system: RBCs; test: Loss of ATP-release bioactivity of C-peptide preparation in water (metaanalysis of repeats of Experiments 1 and 2); format: cell-based
[3] = test system: RBCs; test: Lysis control: ATP signal of RBC solutions under non-flow conditions (luminometer); format: cell-based; conditions: 200 μL RBC solution and 200 μL luciferin/luciferase
Protocol: To ensure that the resulting increase in ATP release was due to C-peptide interacting with the RBCs and not cell lysis, the RBC solutions were measured under non-flow conditions using a luminometer with 200 μL of the RBC solution and 200 μL of the luciferin/luciferase solution. […] To ensure that lysis was not occurring in the tubing, a solution of 0.01 M glybenclamide was prepared by adding 49 mg of glybenclamide (Sigma) to 2 mL of a 0.1 M solution of sodium hydroxide. To this, 7.94 mL of a dextrose solution (1 g dextrose in 20 mL of purified water) was added. The mixture was heated carefully to 52° C. until all of the glybenclamide was dissolved. Once the solute was completely dissolved, 1 mL of this solution was added to 9 mL of PSS, resulting in a solution with a concentration 0.001 M. From this diluted solution, 2.5 mL were added to 2.5 mL of 7% hematocrit RBC solution, resulting in a 3.5% hematocrit solution of RBCs. This solution was allowed to incubate for 15 minutes. As a comparison, 2.5 mL of wash buffer without glybenclamide was added to 2.5 mL of 7% hematocrit RBCs. After 15 minutes, the RBC solutions were assayed.

[4] = test system: diabetic human RBCs; test: ATP release from RBCs of patients with type II diabetes; format: cell-based; conditions: for ATP release: diabetic human RBCs, ±SEM (n=7)
Protocol: as §1
as §2, with “μM. Next, an appropriate volume of this C-peptide solution was added to 10 mL of a 7% solution of RBCs to create a solution containing the C-peptide at concentrations in the 1-5 nM range.” for “μM.”, “Tex.). […]” for “Tex.).”

[5] = Electrospray ionization mass spectrometry of C-peptide and metal adducts in aqueous solution; format: physicochemical; conditions: ESI-MS, remaining in solution for periods >30 days
Protocol: Mass Spectrometric Analysis of Metal-Peptide Binding. […] Thus, alternative postulated causes are tested, including that a covalent modification of the peptide, e.g., induction or lysis of a side-chain-to-side-chain bond or of a moiety covalently attached to an amino acid residue, might be involved, or that non-covalent interaction with another chemical species, e.g., a metal ion, might be involved in this effect.
The data in FIG. 3 reveal some information about the possible loss of activity of the C-peptide after preparation in the aqueous solvent. Specifically, the mass spectrum shown in FIG. 3a is that of peptide prepared in water and analyzed within 0.5 h of preparation. In 3a, the [M+3H]^3+ peak is present as are other forms of the peptide with sodium atoms, potassium atoms, or a combination thereof. […] The presence of this Fe(II) adduct to the C-peptide is not present 24 h after preparation.
Although the Fe(II)-bound C-peptide has the ability to increase ATP-release from deformed RBCs, its activity also appears somewhat limited. […] The unexpected result is that the population of Fe(II)-C-peptide adduct begins to diminish within 24 h after the addition of an Fe(II) source, and Fe(II) is then replaced by either sodium or potassium, or both, cations in the C-peptide complex.
Improving Metal-Induced Activity of C-Peptide. […]

Molecule | effect on the C-peptide-induced increase in ATP release ([1]; RBCs incubated in glybenclamide) | time to loss of bioactivity after preparation in water [2] | ATP signal under non-flow conditions [3] | restoration of ATP release levels of diabetic RBCs ([4]; RBCs of patients with type II diabetes (n=7)) | ATP release ([4]; after 6 hours of incubation with freshly prepared C-peptide preparation) | ATP release ([4]; at 0 hours, freshly prepared C-peptide preparation) | degradation or cleavage of the peptide in solution [5] | increase in ATP release versus control (buffer without C-peptide) ([1]; 1 nM C-peptide, over the 6 h period) | increase in ATP release ([1]; 1 nM c-peptide, over a period of 8 h, normalized values) | ability to induce ATP release from deformed RBCs ([1]; C-peptide kept at 4° C. for >30 days)
COc1ccc(Cl)cc1C(=O)NCCc1ccc(S(=O)(=O)NC(=O)NC2CCCCC2)cc1 [glybenclamide, reference compound] | can be inhibited |  |  |  |  |  |  |  |  | 
C-peptide: Human proinsulin C-peptide (American Peptide Co.), MW 3020 g/mol, synthetic (EAEDLQVGQVELGGGPGAGSLQPLALEGSLQ; (1)..(31) Hominidae sp. proinsulin C-peptide Human (Genbank P01308..gi124617), Chimpanzee (Genbank NP_001008996.1.. gi57113877), Orangutan (Genbank Q8HXV2..gi48428254), and Gorilla (Genbank AAM76640.1..gi23379796); listed as Hominidae sp.) |  | 24 to 36 h | No detectable signals | statistically equivalent to that of healthy, non-diabetic control patients | 256.1 ± 38.7 nM | 63.6 ± 12.6 nM | not undergoing any type of degradation or cleavage | nearly three times that of the RBCs incubated with a control | approximately 2.9 times | no longer has the ability to induce ATP release from deformed RBCs
